From patent publication US20260285863A1, “COMPOUNDS CAPABLE OF MODULATING GPR65” (Pathios Therapeutics Limited, priority 2023, published 2026)

Target: T1, human recombinant GPR65 (Homo sapiens, UniProt Q8IYL9)
T1 construct: host or cells: 1321N1 human astrocytoma cells (1321N1-hrGPR65)
Test: Human GPR65 cAMP HTRF antagonist assay
Format: cell-based
Settings: 1321N1-hrGPR65 cells, assay pH 7.2, cAMP HTRF; read-out: hGPR65 IC50
Excerpt: The “Human GPR65 cyclic adenosine monophosphate (cAMP) Homogeneous Time Resolved Fluorescence (HTRF) antagonist assay”, or simply “cAMP assay”, as described in the accompanying examples, can be used to measure the potency of GPR65 modulators, which is expressed as the concentration of compound required to reduce the increase in cAMP concentration upon GPR65 activation by 50% (i.e. an IC50).
Human GPR65 Cyclic Adenosine Monophosphate (cAMP) Homogeneous Time Resolved Fluorescence (HTRF) Antagonist Assay Procedure
IC50data was obtained by the following procedure:
1321N1 human astrocytoma cells stably expressing human recombinant GPR65 (1321N1-hrGPR65 cells, EuroscreenFast) were cultured according to the vendor's instructions.
Compounds were tested for their ability to antagonise GPR65, through measuring the concentration of cytoplasmic cAMP following treatment of the cells at a pH of 7.2 to activate GPR65 signalling and addition of the compound to be tested. The extent to which the expected rise in cAMP concentration upon GPR65 activation was suppressed by the added compound is indicative of its potency. The assay was carried out according to EuroscreenFast assay Methodology as follows.
On the day of the assay, test compounds were added to 384-well, low volume, white microtiter plates by acoustic dispensing. KRH buffer (5 mM KCl, 1.25 mM MgSO4, 124 mM NaCl, 25 mM HEPES, 13.3 mM Glucose, 1.25 mM KH2PO4 and 1.45 mM CaCl2) was adjusted to pH 6.5, pH 7.6 and pH 8.4 by adding NaOH. 1321N1-hGPR65 cells were rapidly thawed and diluted in KRH, pH 7.6 prior to centrifugation at 300×g for 5 min and resuspension in assay buffer (KRH, pH 7.6, supplemented with 1 mM 3-isobutyl-1-methylxanthine (IBMX) and 200 μM ethylenediaminetetraacetic acid (EDTA)). Cells were added to assay plates at a density of 2,000 cells per well in a volume of […]. Assay plates were briefly centrifuged at 100×g and then incubated at room temperature for 30 min. Cells were stimulated by the addition of 5 μL KRH, pH 6.5, to achieve an assay pH of 7.2, while control wells received […] KRH, pH 8.4 to achieve an assay pH of 7.9. Assay plates were briefly centrifuged at 100×g and then incubated at room temperature for 30 min.
Accumulation of cAMP was detected by cAMP HTRF kit (Cisbio). d2-labeled cAMP and cryptate-labeled anti-cAMP antibody in Lysis and Detection Buffer (Cisbio) were added to assay plates, and the plates were incubated at room temperature for 1 h. HTRF measurements were performed using a Pherastar FSX instrument. Acceptor and donor emission signals were measured at 665 nm and 620 nm, respectively, and HTRF ratios were calculated as signal665 nm/signal620 nm×104. Data were normalised to high and low control values and fitted with 4-parameter logistic regression to determine hGPR65 IC50 values for the test compounds, which are shown in Table 1.

T1 sequence (Q8IYL9 whole entry): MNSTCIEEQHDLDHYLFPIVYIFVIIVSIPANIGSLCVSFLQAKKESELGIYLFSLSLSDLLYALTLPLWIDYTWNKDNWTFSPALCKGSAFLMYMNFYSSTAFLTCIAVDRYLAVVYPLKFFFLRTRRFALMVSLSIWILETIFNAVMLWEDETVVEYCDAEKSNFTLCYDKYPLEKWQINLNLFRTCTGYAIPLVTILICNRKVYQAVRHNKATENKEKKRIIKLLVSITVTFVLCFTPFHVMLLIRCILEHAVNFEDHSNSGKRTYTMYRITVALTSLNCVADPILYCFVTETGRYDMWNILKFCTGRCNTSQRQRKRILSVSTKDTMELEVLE

Compound	IC50 [nM]
O=C(Nc1cc(Cl)c(-c2ccc3nonc3c2)cn1)N1[C@@H]2CC[C@H]1[C@@H](F)c1c2ccnc1F [Compound 76, (5R,8S,9S)-N-(5-(Benzo[c][1,2,5]oxadiazol-5-yl)-4-chloropyridin-2-yl)-1,9-difluoro-6,7,8,9-tetrahydro-5H-5,8-epiminocyclohepta[c]pyridine-10-carboxamide]	< 500
O=C(Nc1cc(Cl)c(-c2ccc3nonc3c2)cn1)N1[C@H]2CC[C@@H]1C(F)(F)c1c2ccnc1F [Compound 73, (5S,8R)-N-(5-(Benzo[c][1,2,5]oxadiazol-5-yl)-4-chloropyridin-2-yl)-1,9,9-trifluoro-6,7,8,9-tetrahydro-5H-5,8-epiminocyclohepta[c]pyridine-10-carboxamide]	500 to 5000
O=C(Nc1cc(Cl)c(Cl)cn1)N1[C@@H]2CC[C@H]1[C@@H](F)c1c2ccnc1F [Compound 42, (5R,8S,9S)-N-(4,5-dichloropyridin-2-yl)-1,9-difluoro-6,7,8,9-tetrahydro-5H-5,8-epiminocyclohepta[c]pyridine-10-carboxamide]	< 500
O=C(Nc1cc(Cl)c(-c2ccc(OCC(F)(F)F)nn2)cc1F)N1[C@H]2CC[C@@H]1c1c[nH]c(=O)cc1C2 [Compound 12, (6S,9R)-N-(5-chloro-2-fluoro-4-(6-(2,2,2-trifluoroethoxy)pyridazin-3-yl)phenyl)-3-oxo-3,5,6,7,8,9-hexahydro-2H-6,9-epiminocyclohepta[c]pyridine-10-carboxamide]	< 500
O=C(Nc1cc(Cl)c(-c2ccc(OC3CCN(CC(F)(F)F)C3)nc2)cc1F)N1[C@H]2CC[C@@H]1c1c[nH]c(=O)cc1C2 (stereo partly drawn) [Compound 27, (6S,9R)-N-(5-chloro-2-fluoro-4-(6-((1-(2,2,2-trifluoroethyl)pyrrolidin-3-yl)oxy)pyridin-3-yl)phenyl)-3-oxo-3,5,6,7,8,9-hexahydro-2H-6,9-epiminocyclohepta[c]pyridine-10-carboxamide]	< 500
O=C(Nc1cc(Cl)c(-c2ccc(OC[C@@H]3CC3(F)F)nc2)cc1F)N1[C@H]2CC[C@@H]1c1c[nH]c(=O)cc1C2 [Compound 85, (6S,9R)-N-(5-Chloro-4-(6-(((S)-2,2-difluorocyclopropyl)methoxy)pyridin-3-yl)-2-fluorophenyl)-3-oxo-3,5,6,7,8,9-hexahydro-2H-6,9-epiminocyclohepta[c]pyridine-10-carboxamide]	< 500
O=C(Nc1cc(Cl)c(-c2ccc(NCC(F)(F)F)nc2)cc1F)N1[C@H]2CC[C@@H]1c1n[nH]c(=O)cc1C2 [Compound 2, (6S,9R)-N-(5-chloro-2-fluoro-4-(6-((2,2,2-trifluoroethyl)amino)pyridin-3-yl)phenyl)-3-oxo-3,5,6,7,8,9-hexahydro-2H-6,9-epiminocyclohepta[c]pyridazine-10-carboxamide]	< 500
O=C(Nc1cc(Cl)c(Cl)cc1OCC1(F)CC1)N1[C@H]2CC[C@@H]1c1n[nH]c(=O)cc1C2 [Compound 89, (6S,9R)-N-(4,5-Dichloro-2-((1-fluorocyclopropyl)methoxy)phenyl)-3-oxo-3,5,6,7,8,9-hexahydro-2H-6,9-epiminocyclohepta[c]pyridazine-10-carboxamide]	> 5000
O=C(Nc1cc(Cl)c(-c2ccc(OC3CCCC3)nc2)cc1F)N1[C@H]2CC[C@@H]1c1c[nH]c(=O)cc1C2 [Compound 10, (6S,9R)-N-(5-chloro-4-(6-(cyclopentyloxy)pyridin-3-yl)-2-fluorophenyl)-3-oxo-3,5,6,7,8,9-hexahydro-2H-6,9-epiminocyclohepta[c]pyridine-10-carboxamide]	< 500
CN(CC(F)(F)F)c1ccnc(-c2cc(F)c(NC(=O)N3[C@H]4CC[C@@H]3c3c[nH]c(=O)cc3C4)cc2Cl)c1 [Compound 39, (6S,9R)-N-(5-chloro-2-fluoro-4-(4-(methyl(2,2,2-trifluoroethyl)amino)pyridin-2-yl)phenyl)-3-oxo-3,5,6,7,8,9-hexahydro-2H-6,9-epiminocyclohepta[c]pyridine-10-carboxamide]	< 500
O=C(Nc1cc(Cl)c(-c2ccc(O[C@H]3CCN(CC(F)(F)F)C3)nc2)cc1F)N1[C@H]2CC[C@@H]1c1c[nH]c(=O)cc1C2 (single isomer, unassigned) [Compound 78]	< 500
CN(C(=O)N1[C@H]2CC[C@@H]1c1n[nH]c(=O)cc1C2)c1cc(Cl)c(-c2ccc(OCC(F)(F)F)nc2)cc1F [Compound 9, (6S,9R)-N-(5-chloro-2-fluoro-4-(6-(2,2,2-trifluoroethoxy)pyridin-3-yl)phenyl)-N-methyl-3-oxo-3,5,6,7,8,9-hexahydro-2H-6,9-epiminocyclohepta[c]pyridazine-10-carboxamide]	500 to 5000
O=C(Nc1cc(Cl)c(-c2ccc(Nc3cc(Cl)c(-c4ccc(OCC(F)(F)F)nc4)cc3F)nc2)cc1F)N1[C@H]2CC[C@@H]1c1n[nH]c(=O)cc1C2 [Compound 92, (6S,9R)-N-(5-Chloro-4-(6-((5-chloro-2-fluoro-4-(6-(2,2,2-trifluoroethoxy)pyridin-3-yl)phenyl)amino)pyridin-3-yl)-2-fluorophenyl)-3-oxo-3,5,6,7,8,9-hexahydro-2H-6,9-epiminocyclohepta[c]pyridazine-10-carboxamide]	< 500
O=C(Nc1cc(Cl)c(C(F)(F)F)cn1)N1C2CCC1[C@H](F)c1c2ccnc1F (mixture of isomers) [Compound 33, (±)(9S)-N-(4-chloro-5-(trifluoromethyl)pyridin-2-yl)-1,9-difluoro-6,7,8,9-tetrahydro-5H-5,8-epiminocyclohepta[c]pyridine-10-carboxamide]	< 500
O=C(Nc1cc(Cl)c(-c2ccc(OC3CCS(=O)(=O)CC3)nc2)cc1F)N1[C@H]2CC[C@@H]1c1n[nH]c(=O)cc1C2 [Compound 87, (6S,9R)-N-(5-Chloro-4-(6-((1,1-dioxidotetrahydro-2H-thiopyran-4-yl)oxy)pyridine-3-yl)-2-fluorophenyl)-3-oxo-3,5,6,7,8,9-hexahydro-2H-6,9-epiminocyclohepta[c]pyridazine-10-carboxamide]	< 500
O=C(Nc1cc(Cl)c(NCc2ccc(OCC(F)(F)F)cn2)cc1F)N1[C@H]2CC[C@@H]1c1n[nH]c(=O)cc1C2 [Compound 65, (6S,9R)-N-(5-chloro-2-fluoro-4-(((5-(2,2,2-trifluoroethoxy)pyridin-2-yl)methyl)amino)phenyl)-3-oxo-3,5,6,7,8,9-hexahydro-2H-6,9-epiminocyclohepta[c]pyridazine-10-carboxamide]	500 to 5000
O=C(Nc1cc(Cl)c(C(F)(F)F)cc1F)N1[C@H]2CC[C@@H]1c1ccncc1C2 [Compound 50, (5R,8S)-N-(5-chloro-2-fluoro-4-(trifluoromethyl)phenyl)-6,7,8,9-tetrahydro-5H-5,8-epiminocyclohepta[c]pyridine-10-carboxamide]	< 500
O=C(Nc1cc(Cl)c(-c2ccc(OC3CCOCC3)nc2)cc1F)N1[C@H]2CC[C@@H]1c1n[nH]c(=O)cc1C2 [Compound 84, (6S,9R)-N-(5-Chloro-2-fluoro-4-(6-((tetrahydro-2H-pyran-4-yl)oxy)pyridin-3-yl)phenyl)-3-oxo-3,5,6,7,8,9-hexahydro-2H-6,9-epiminocyclohepta[c]pyridazine-10-carboxamide]	< 500
COCCOCCO[C@H]1C[C@@H](Oc2ccc(-c3cc(F)c(NC(=O)N4[C@H]5CC[C@@H]4c4c[nH]c(=O)cc4C5)cc3Cl)cn2)C1 [Compound 15, (6S,9R)-N-(5-chloro-2-fluoro-4-(6-((1s,3S)-3-(2-(2-methoxyethoxy)ethoxy)cyclobutoxy)pyridin-3-yl)phenyl)-3-oxo-3,5,6,7,8,9-hexahydro-2H-6,9-epiminocyclohepta[c]pyridine-10-carboxamide]	< 500
CN1CCC(Oc2ccc(-c3cc(F)c(NC(=O)N4[C@H]5CC[C@@H]4c4c[nH]c(=O)cc4C5)cc3Cl)cn2)C1 (stereo partly drawn) [Compound 62]	500 to 5000
O=C(Nc1cc(Cl)c(COc2ccccc2)cc1F)N1[C@H]2CC[C@@H]1c1c[nH]c(=O)cc1C2 [Compound 53, (6S,9R)-N-(5-chloro-2-fluoro-4-(phenoxymethyl)phenyl)-3-oxo-3,5,6,7,8,9-hexahydro-2H-6,9-epiminocyclohepta[c]pyridine-10-carboxamide]	< 500
